Laboratory results reported in ChEMBL document CHEMBL1135086.

These molecules were tested against Nitric oxide synthase 1 (Rattus norvegicus) (UniProt P29476) (assay: Effect on the activity of recombinant rat neuronal nitric oxide synthase as determined with radioactive L-arginine/L-citruline conversion assay). Conditions: concentration not given here.
Nitric oxide synthase 1 (Rattus norvegicus), sequence (P29476 whole entry): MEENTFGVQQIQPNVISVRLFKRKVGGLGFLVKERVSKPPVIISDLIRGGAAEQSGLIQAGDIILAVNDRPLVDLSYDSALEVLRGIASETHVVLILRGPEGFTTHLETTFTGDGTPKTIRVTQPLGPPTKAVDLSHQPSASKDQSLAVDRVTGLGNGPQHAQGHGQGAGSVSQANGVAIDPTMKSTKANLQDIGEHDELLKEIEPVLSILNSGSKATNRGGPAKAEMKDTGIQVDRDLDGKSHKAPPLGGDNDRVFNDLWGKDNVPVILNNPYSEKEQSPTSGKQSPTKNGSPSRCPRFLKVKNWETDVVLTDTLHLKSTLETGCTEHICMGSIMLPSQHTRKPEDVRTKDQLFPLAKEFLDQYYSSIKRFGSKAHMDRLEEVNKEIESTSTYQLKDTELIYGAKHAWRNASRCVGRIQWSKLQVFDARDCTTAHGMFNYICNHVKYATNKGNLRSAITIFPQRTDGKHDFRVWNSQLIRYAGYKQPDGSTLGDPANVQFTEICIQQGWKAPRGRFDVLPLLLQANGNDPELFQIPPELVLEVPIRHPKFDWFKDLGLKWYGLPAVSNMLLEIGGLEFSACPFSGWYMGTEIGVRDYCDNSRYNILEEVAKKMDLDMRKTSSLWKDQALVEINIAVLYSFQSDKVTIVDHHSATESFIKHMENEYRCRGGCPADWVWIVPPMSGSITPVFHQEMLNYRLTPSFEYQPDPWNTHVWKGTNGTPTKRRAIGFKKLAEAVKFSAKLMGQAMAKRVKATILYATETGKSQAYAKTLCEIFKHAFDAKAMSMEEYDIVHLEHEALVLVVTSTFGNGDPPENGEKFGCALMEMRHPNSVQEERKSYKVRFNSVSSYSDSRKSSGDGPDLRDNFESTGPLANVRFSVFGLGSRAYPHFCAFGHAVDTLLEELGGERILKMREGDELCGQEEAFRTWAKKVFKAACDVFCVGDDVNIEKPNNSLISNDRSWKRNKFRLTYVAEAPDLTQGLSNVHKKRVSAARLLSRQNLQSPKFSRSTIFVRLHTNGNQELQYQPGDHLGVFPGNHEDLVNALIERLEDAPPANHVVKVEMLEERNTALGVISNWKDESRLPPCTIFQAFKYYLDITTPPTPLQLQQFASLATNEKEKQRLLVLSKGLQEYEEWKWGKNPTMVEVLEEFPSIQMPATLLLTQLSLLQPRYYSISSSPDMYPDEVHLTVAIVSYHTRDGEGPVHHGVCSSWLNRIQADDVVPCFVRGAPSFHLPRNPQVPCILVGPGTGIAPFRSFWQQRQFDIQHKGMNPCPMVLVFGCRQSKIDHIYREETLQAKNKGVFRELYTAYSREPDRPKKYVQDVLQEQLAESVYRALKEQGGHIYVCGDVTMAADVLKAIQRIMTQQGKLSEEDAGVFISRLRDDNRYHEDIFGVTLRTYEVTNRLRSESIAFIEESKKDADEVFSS
Design: concentration or dose not given beside the values
`NCC(O)c1cc(O)c(O)cc1[N+](=O)[O-]` (stereo unspecified) was tested, and the inhibition was 78%.
`O=[N+]([O-])c1ccc(O)c(O)c1` showed an inhibition of 33%.
`O=[N+]([O-])c1cccc(O)c1O` was tested, and the inhibition was 94%.
In the case of `Cc1cc(O)c(O)cc1[N+](=O)[O-]`, the inhibition was 35%.
`Cc1cc([N+](=O)[O-])cc(O)c1O` gave an inhibition of 28%.
`NCCc1cc(O)c(O)cc1[N+](=O)[O-]` showed an inhibition of 71%.
